This note sets out measurements from PubChem BioAssay AID2060333 (Molecular Pharmacology Branch, DTP, NCI, 2025).

The experiment deals with 845751-090-R-J2-PDC tumor spheroid viability. Description: Anticancer human tumor 845751-090-R-J2-PDC patient-derived head and neck squamous carcinoma cell line growth inhibition [IpAb]. The following applies: spheroids with HUVEC and MSC; for viability, T/C: stronger effect = lower value. The method, boiled down:
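Multi-cell spheroids of 60% tumour cells, 25% HUVEC and 15% MSC in ultra-low-attachment U-bottom wells, treated with agents combined with ipatasertib or abemaciclib. Half-log ranges top out near clinical Cmax, or 10 microM when Cmax is unknown.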

Where [1] appears, read: curve of first compound, second compound 0.1 µM.
Where [2] appears, read: curve of first compound, second compound 0.316 µM.
The mark [3] stands for this setting: curve of first compound, second compound 1 µM.
[4] abbreviates: curve of first compound, second compound 3.16 µM.
Setting [5] is: curve of first compound, second compound 10 µM.

“And” between values parts separate entries of the source, which are not always exact repeats. Equal entries are not always repeated. Some results are limits rather than exact numbers.
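Note: spheroids exposed to compounds for 7 days before readout.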
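Throughout, for viability, T/C: CTG3D luminescence normalised so that 100% = DMSO vehicle control.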

Turning to `Cn1nccc1Nc1nccc(-c2ccn(C(CO)c3ccc(Cl)c(F)c3)c(=O)c2)n1` (stereo not given) + CC(C)NCC(C(=O)N1CCN(c2ncnc3c2C(C)CC3O)CC1)c1ccc(Cl)cc1, the IC50 (as a rule, the midpoint of a concentration-inhibition curve) under setting [1] amounted to 558 nM; the IC50 under setting [2] is less than 31.6 nM; the IC50 under setting [3] is less than 31.6 nM; the IC50 under setting [4] is less than 31.6 nM; the IC50 under setting [5] is less than 31.6 nM. Also, the viability, T/C (as a rule, the result in the treated group divided by that in the control group, in per cent) runs as follows: (second compound 0.1 µM, first compound 0.0316 µM) 65.5%; (second compound 0.1 µM, first compound 0.1 µM) 66.5%; (second compound 0.1 µM, first compound 0.316 µM) 57.9%; (second compound 0.1 µM, first compound 1 µM) 41.6%; (second compound 0.1 µM, first compound 3.16 µM) 44.1%; (second compound 0.1 µM, first compound 10 µM) 35.8%. For the same compound, the viability, T/C reads like this: (second compound 0.316 µM, first compound 0.0316 µM) 45.6%; (second compound 0.316 µM, first compound 0.1 µM) 40.6%; (second compound 0.316 µM, first compound 0.316 µM) 24.3%; (second compound 0.316 µM, first compound 1 µM) 14.3%; (second compound 0.316 µM, first compound 3.16 µM) 16%; (second compound 0.316 µM, first compound 10 µM) 17.1%. Further, the viability, T/C runs as follows: (second compound 1 µM, first compound 0.0316 µM) 28.2%; (second compound 1 µM, first compound 0.1 µM) 23.2%; (second compound 1 µM, first compound 0.316 µM) 18%; (second compound 1 µM, first compound 1 µM) 13.1%; (second compound 1 µM, first compound 3.16 µM) 9.8%; (second compound 1 µM, first compound 10 µM) 4.51%. Further, the viability, T/C is 22.9% (second compound 3.16 µM, first compound 0.0316 µM); 16.7% (second compound 3.16 µM, first compound 0.1 µM); 11.5% (second compound 3.16 µM, first compound 0.316 µM); 8.53% (second compound 3.16 µM, first compound 1 µM); 4.72% (second compound 3.16 µM, first compound 3.16 µM); 3.12% (second compound 3.16 µM, first compound 10 µM). Besides, the viability, T/C was 11.3% (second compound 10 µM, first compound 0.0316 µM); 7.13% (second compound 10 µM, first compound 0.1 µM); 5.99% (second compound 10 µM, first compound 0.316 µM); 5.42% (second compound 10 µM, first compound 1 µM); 3.44% (second compound 10 µM, first compound 3.16 µM); 1.71% (second compound 10 µM, first compound 10 µM).
Consider `CC(C)(C)c1cnc(CSc2cnc(NC(=O)C3CCNCC3)s2)o1`, for which the viability, T/C is 133% and 138% (compound 0.00949 µM); 147% and 141% (compound 0.03 µM); 50.3% and 77.6% (compound 0.0949 µM); 1.67% and 2.96% (compound 0.3 µM); 1.36% and 1.78% (compound 0.949 µM); 0.89% and 2.1% (compound 3 µM). Further, under “curve of compound”, the IC50 was 95.6 nM and 145 nM.
As to `CC(C)NCC(C(=O)N1CCN(c2ncnc3c2C(C)CC3O)CC1)c1ccc(Cl)cc1` (stereo not given), the viability, T/C is 30.2% [middle of 13 runs] (compound 1 µM), 23.3% [middle of 13 runs] (compound 3.16 µM) and 14.6% [middle of 13 runs] (compound 10 µM).
In the case of `Cn1cnc2c(F)c(Nc3ccc(Br)cc3Cl)c(C(=O)NOCCO)cc21` + CC(C)NCC(C(=O)N1CCN(c2ncnc3c2C(C)CC3O)CC1)c1ccc(Cl)cc1, the IC50 is less than 9.49 nM under setting [1]; less than 9.49 nM under setting [2]; less than 9.49 nM under setting [3]; less than 9.49 nM under setting [4]; less than 9.49 nM under setting [5]. For the same compound, the viability, T/C is, setting by setting: (second compound 0.1 µM, first compound 0.00949 µM) 40.2%; (second compound 0.1 µM, first compound 0.03 µM) 29.9%; (second compound 0.1 µM, first compound 0.0949 µM) 23.6%; (second compound 0.1 µM, first compound 0.3 µM) 20.6%; (second compound 0.1 µM, first compound 0.949 µM) 16.6%; (second compound 0.1 µM, first compound 3 µM) 12.3%. The viability, T/C is 17.2% (second compound 0.316 µM, first compound 0.00949 µM); 15.4% (second compound 0.316 µM, first compound 0.03 µM); 11.9% (second compound 0.316 µM, first compound 0.0949 µM); 11.2% (second compound 0.316 µM, first compound 0.3 µM); 7.05% (second compound 0.316 µM, first compound 0.949 µM); 5% (second compound 0.316 µM, first compound 3 µM). The viability, T/C was 14.4% (second compound 1 µM, first compound 0.00949 µM); 10.5% (second compound 1 µM, first compound 0.03 µM); 6.55% (second compound 1 µM, first compound 0.0949 µM); 4.68% (second compound 1 µM, first compound 0.3 µM); 4.96% (second compound 1 µM, first compound 0.949 µM); 2.43% (second compound 1 µM, first compound 3 µM). For the same compound, the viability, T/C (second compound 3.16 µM, first compound 0.00949 µM) was 11.3%; the viability, T/C (second compound 3.16 µM, first compound 0.03 µM) is 5.57%; the viability, T/C (second compound 3.16 µM, first compound 0.0949 µM) was 3.02%; the viability, T/C (second compound 3.16 µM, first compound 0.3 µM) was 3.4%; the viability, T/C (second compound 3.16 µM, first compound 0.949 µM) is 1.75%; the viability, T/C (second compound 3.16 µM, first compound 3 µM) is 1.07%. Moreover, the viability, T/C runs as follows: (second compound 10 µM, first compound 0.00949 µM) 2.67%; (second compound 10 µM, first compound 0.03 µM) 1.92%; (second compound 10 µM, first compound 0.0949 µM) 1.37%; (second compound 10 µM, first compound 0.3 µM) 1.13%; (second compound 10 µM, first compound 0.949 µM) 2.24%; (second compound 10 µM, first compound 3 µM) 0.56%.
